Target: human GPR40 receptor (Homo sapiens, UniProt O14842)
Experiment: IP1 accumulation measurements using the IPOne assay system
Assay type: cell-based
Conditions: 1321N1 cells stably expressing human GPR40; stimulation 1 h at 37° C.
Description: IP1 accumulation measurements using the IPOne assay system—1321N1 cells stably expressing human GPR40 receptor (Euroscreen, Belgium) are seeded 24 h before the assay in white 384-well plates in culture medium containing 10% FCS, 1% Na-Pyruvate and 400 μg/mL G418. IP1 is assayed according to the manufacturer's description (Cisbio Bioassays, France). In brief, the assay is started by substitution of the culture medium by stimulation buffer (Hepes 10 mM, CaCl2 1 mM, MgCl2 0.5 mM, KCl 4.2 mM, NaCl 146 mM, glucose 5.5 mM and LiCl 50 mM, pH 7.4). Cells are stimulated for 1 h at 37° C., 5% CO2 by addition of the compounds that are diluted in stimulation buffer containing LiCl. Assays are stopped by adding HTRF-conjugates (IP1-d2 and Anti-IP1 cryptate Tb) and lysis buffer, provided by the manufacturer. After an incubation time of 1 h at room temperature plates are measured using an EnVision™, Perkin Elmer. The obtained fluorescence ratios at 665/615 […] are then used to calculate the pEC50 values using Assay Explorer 3.3 Software (Accelrys, Inc.) by interpolation using an IP1 reference curve and subsequent sigmoidal curve fitting allowing for a variable hill slope.

Sequence of human GPR40 receptor (O14842 whole entry): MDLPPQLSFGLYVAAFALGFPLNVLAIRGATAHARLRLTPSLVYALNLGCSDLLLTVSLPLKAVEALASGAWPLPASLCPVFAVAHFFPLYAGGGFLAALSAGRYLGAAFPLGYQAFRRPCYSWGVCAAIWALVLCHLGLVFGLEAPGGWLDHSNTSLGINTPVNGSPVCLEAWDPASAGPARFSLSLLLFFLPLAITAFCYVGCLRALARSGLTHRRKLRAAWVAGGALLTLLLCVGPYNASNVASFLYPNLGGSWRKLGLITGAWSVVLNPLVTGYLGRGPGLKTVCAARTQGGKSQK

SMILES | EC50
Cc1cccc(Oc2ccc(F)c3c2CC[C@H]3Oc2ccc3c(c2)OC[C@H]3CC(=O)O)n1 [Example 15, {(S)-6-[(R)-7-Fluoro-4-(6-methyl-pyrid-2-yloxy)-indan-1-yloxy]-2,3-dihydro-benzofuran-3-yl}-acetic acid] | 31 nM
COc1ccc(Oc2ccc(F)c3c2CC[C@H]3Oc2ccc3c(c2)OC[C@H]3CC(=O)O)nn1 [Example 16, {(S)-6-[(R)-7-Fluoro-4-(6-methoxy-pyridazin-3-yloxy)-indan-1-yloxy]-2,3-dihydro-benzofuran-3-yl}-acetic acid] | 138 nM
N#Cc1ccccc1Oc1ccc(F)c2c1CC[C@H]2Oc1ccc2c(c1)OC[C@H]2CC(=O)O [Example 17, {(S)-6-[(R)-4-(2-Cyano-phenoxy)-7-fluoro-indan-1-yloxy]-2,3-dihydro-benzofuran-3-yl}-acetic acid] | 4 nM
CS(=O)(=O)c1ccc(Oc2ccc(F)c3c2CC[C@H]3Oc2ccc3c(c2)OC[C@H]3CC(=O)O)cc1 [Example 18, {(S)-6-[(R)-7-Fluoro-4-(4-methylsulfonyl-phenoxy)-indan-1-yloxy]-2,3-dihydro-benzofuran-3-yl}-acetic acid] | 41 nM
O=C(O)C[C@@H]1COc2cc(O[C@@H]3CCc4c(Oc5nc6ccccc6o5)ccc(F)c43)ccc21 [Example 19, {(S)-6-[(R)-4-Benzoxazol-2-yloxy-7-fluoro-indan-1-yloxy]-2,3-dihydro-benzofuran-3-yl}-acetic acid] | 13 nM
O=C(O)C[C@@H]1COc2cc(O[C@@H]3CCc4c(Oc5ccc6ncccc6c5)ccc(F)c43)ccc21 [Example 20, {(S)-6-[(R)-7-Fluoro-4-Quinolin-6-yloxy-indan-1-yloxy]-2,3-dihydro-benzofuran-3-yl}-acetic acid] | 6 nM
Cc1cc(Oc2ccc(F)c3c2CC[C@H]3Oc2ccc3c(c2)OC[C@H]3CC(=O)O)ccc1C#N [Example 21, {(S)-6-[(R)-4-(4-Cyano-3-methyl-phenoxy)-7-fluoro-4-indan-1-yloxy]-2,3-dihydro-benzofuran-3-yl}-acetic acid] | 4 nM
N#Cc1ccc(Oc2ccc(F)c3c2CC[C@H]3Oc2ccc3c(c2)OC[C@H]3CC(=O)O)c(F)c1 [Example 22, {(S)-6-[(R)-4-(4-Cyano-2-fluoro-phenoxy)-7-fluoro-indan-1-yloxy]-2,3-dihydro-benzofuran-3-yl}-acetic acid] | 3 nM
Cc1ccc(Oc2ccc(F)c3c2CC[C@H]3Oc2ccc3c(c2)OC[C@H]3CC(=O)O)c(C#N)c1 [Example 23, {(S)-6-[(R)-4-(2-Cyano-4-methyl-phenoxy)-7-fluoro-indan-1-yloxy]-2,3-dihydro-benzofuran-3-yl}-acetic acid] | 7 nM
Cc1cc(C#N)ccc1Oc1ccc(F)c2c1CC[C@H]2Oc1ccc2c(c1)OC[C@H]2CC(=O)O [Example 24, {(S)-6-[(R)-4-(4-Cyano-2-methyl-phenoxy)-7-fluoro-indan-1-yloxy]-2,3-dihydro-benzofuran-3-yl}-acetic acid] | 3 nM
O=C(O)C[C@@H]1COc2cc(O[C@@H]3CCc4c(Oc5ccc(OC(F)F)cn5)ccc(F)c43)ccc21 [Example 25, {(S)-6-[(R)-4-(5-Difluoromethoxy-pyrid-2-yloxy)-7-fluoro-indan-1-yloxy]-2,3-dihydro-benzofuran-3-yl}-acetic acid] | 13 nM
N#Cc1cc(OC(F)(F)F)ccc1Oc1ccc(F)c2c1CC[C@H]2Oc1ccc2c(c1)OC[C@H]2CC(=O)O [Example 26, {(S)-6-[(R)-4-(2-Cyano-4-trifluoromethoxy-phenoxy)-7-fluoro-indan-1-yloxy]-2,3-dihydro-benzofuran-3-yl}-acetic acid] | 30 nM
N#Cc1cccc(Oc2ccc(F)c3c2CC[C@H]3Oc2ccc3c(c2)OC[C@H]3CC(=O)O)c1 [Example 27, {(S)-6-[(R)-4-(3-Cyano-phenoxy)-7-fluoro-indan-1-yloxy]-2,3-dihydro-benzofuran-3-yl}-acetic acid] | 7 nM
